Test system: MDA-MB-231
Assay: Intracellular ROS analysis with DCF-DA (FACS)
Type: cell-based
Conditions: for Increase in ROS versus DMSO: 1 hour, DCF-DA
Text: We examined the status of intracellular ROS induced by 2a. For this experiment, we employed the used 2′,7′-dichlorofluoresceindiacetate (DCF-DA),[103] a fluorogenic dye with an excitation/emission wavelength of 495/525 nm. DCF-DA enters into the cell and is subsequently deacetylated by cellular esterases where it is then oxidized by ROS to produce a fluorescent compound that can detected with flow cytometry (FACS) using the FITC channel.[104]
To quantify the amount of ROS produced, we subjected MDA-MB-231 cells to 2a at 10 and 20 μM to assess concentration dependence. Within 1 hour of treatment, we observed a 1.3× increase in ROS in cells treated with 2aversus DMSO (Fig. 11). At twice the concentration, 20 μM, we observed a 1.5× increase in ROS. […] When compared to the H2O2 control, 2a produces similar ROS levels in MDA-MB-231 cells (Fig. 11). […] To further solidify that the DCF-DA fluorescence is from ROS and not other reactive species such as RNS, we pre-treated cells with 10 mM N-acetyl cysteine for 2 h. NAC is a natural ROS scavenger and a key component in the formation of glutathione (GSH), which is a powerful antioxidant.[105,106] After pre-treatment, the cells were subjected to the same concentration of 2a (10 μM) for 1 h.
100 µL of dye into 900 µL of DMEM. Note: the working solution of JC-1 should always be prepared fresh and not stored for long-term use. Then, 100 µL/mL of DMEM were added to the cells and incubated at 37 °C for 20 minutes. Prior to imaging, the media was removed and replaced with room temperature PBS (2 mL). The cells were then visualized using confocal microscopy on a Nikon A1R Inverted Confocal Microscope. […]
For the wells that were pre-treated with NAC, a stock solution of NAC in DMEM was added at a concentration of 10 mM for 2 h prior to the addition of 2a. […] The cells were then analyzed using FACS with the FITC channel […]
Mitochondrial Metabolism Analysis with Seahorse XF96 Analysis. […] The optimum conditions were determined to be 30,000 cells/well and an FCCP injection concentration of 0.6 µM. […]

## C[N+](C)=C1[S][Au-2]2([S]1)[c]1ccccc1Cc1cccc[n+]12.F[P-](F)(F)(F)(F)F (stereo not drawn) [2a]
MDA-MB-231, 10 μM
  Increase in ROS versus DMSO: 1.3 ×
MDA-MB-231, 20 μM
  Increase in ROS versus DMSO: 1.5 ×
MDA-MB-231, 10 mM NAC 2 h, then 10 μM for 1 h
  ROS levels after NAC pre-treatment: no increase in ROS levels
